Data on 65 molecules can be found in patent US9567339B2, “Primary carboxamides as BTK inhibitors” (AbbVie Inc., priority 2013, dated 2017).

The target in one experiment is BTK, recombinant human catalytic domain (aa 393-659) (Homo sapiens (Human), UniProt Q06187). The experiment is described as follows: In vitro BTK kinase activity measured by time-resolved fluorescence resonance energy transfer (trFRET). It is filed as biochemical. Conditions: read-out: Btk IC50.
Sequence of BTK, recombinant human catalytic domain (aa 393-659) (Q06187 393-659): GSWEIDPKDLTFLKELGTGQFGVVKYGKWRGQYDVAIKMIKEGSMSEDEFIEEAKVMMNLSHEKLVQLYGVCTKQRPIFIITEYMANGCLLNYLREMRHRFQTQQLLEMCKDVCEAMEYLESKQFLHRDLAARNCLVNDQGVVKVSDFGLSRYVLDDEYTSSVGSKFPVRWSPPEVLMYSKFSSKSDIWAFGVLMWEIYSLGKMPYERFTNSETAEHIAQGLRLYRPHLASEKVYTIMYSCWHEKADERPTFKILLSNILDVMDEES
The term IC50 denotes the concentration that gives 50% inhibition. Consider `CC(C)(C)c1cc(C(=O)N[C@@H]2CCCN(c3ccc(C(N)=O)c4[nH]ccc34)C2)no1` [O.1.10*], for which the IC50 fell in the range of 1 to 10 µM.

Regarding `Cc1ccc(-c2cc3c(-c4ccccn4)ccc(C(N)=O)c3[nH]2)cc1` [U.1.3], the IC50 lay within 0.1 to 1 µM. On to `Cc1c(NC(=O)/C=C/CN(C)C)cccc1-c1cnc(C(N)=O)c2[nH]ccc12` [J.2.1], for which the IC50 is 0.1 to 1 µM. Take `C=CC(=O)N1C[C@H](CO)C[C@H](c2ccc(C(N)=O)c3[nH]ccc23)C1` [E.9.47]: the IC50 lay in the range of 0.1 to 1 µM. `CCOC(=O)/C=C/C(=O)Nc1cccc(-c2ccc(C(N)=O)c3[nH]c(C4=CCN(S(C)(=O)=O)CC4)cc23)c1C` [D.7.20]: the IC50 was less than 0.1 µM. Still for that read-out and setting: under `C=C(CNC)C(=O)Nc1cccc(-c2ccc(C(N)=O)c3[nH]ccc23)c1` [G.1.3] stands less than 0.1 µM. Take `CCC(=O)N1CC[C@H](c2ccc(C(N)=O)c3[nH]c(C)cc23)C1` [E.10.1]: the IC50 fell in the range of 0.1 to 1 µM.

For the molecule `C=CC(=O)N1CC[C@@H](c2ccc(C(N)=O)c3[nH]c(-c4cnn(C)c4)cc23)C1` [E.9.49], the IC50 was in the range of 0.1 to 1 µM. On to `C=CC(=O)N1CC(N(C)c2ccc(C(N)=O)c3[nH]c(-c4ccc5c(c4)OCCC5)cc23)C1` [E.9.12], for which the IC50 was less than 0.1 µM. Regarding `C=CC(=O)Nc1cccc(-c2ncc(C(N)=O)c3[nH]ccc23)c1C` [E.1.9], the IC50 was less than 0.1 µM.

As for `C=C(C)C(=O)Nc1cccc(-c2ccc(C(N)=O)c3[nH]c(C4=CCN(S(C)(=O)=O)CC4)cc23)c1C` [D.7.5], the IC50 was less than 0.1 µM. In the case of `C=CC(=O)N1CC(N(C)c2ccc(C(N)=O)c3[nH]c(-c4cnn(C)c4)cc23)C1` [E.9.14], the IC50 is less than 0.1 µM. Consider `C=CC(=O)Nc1cc(OCc2ccccc2)ccc1-c1ccc(C(N)=O)c2[nH]ccc12` [E.1.17], for which the IC50 fell in the range of 1 to 10 µM. The same measure, in the same setting: under `C=CC(=O)N1C[C@H]2CN(c3ccc(C(N)=O)c4[nH]ccc34)C[C@H]21` [E.9.42] stands 0.1 to 1 µM. On to `Cc1c(NC(=O)C2=CCCC2)cccc1-c1ccc(C(N)=O)c2[nH]c(C3=CCN(S(C)(=O)=O)CC3)cc12` [D.7.15], for which the IC50 is less than 0.1 µM. The same measure, in the same setting: under `C=CC(=O)N1CC(N(C)c2ccc(C(N)=O)c3[nH]c(-c4ccc5c(c4)CCN(CC)C5)cc23)C1` [E.9.17] stands less than 0.1 µM. As for `Cc1c(NC(=O)CCN2CCCCC2)cccc1-c1ccc(C(N)=O)c2[nH]c(C3=CCN(S(C)(=O)=O)CC3)cc12` [D.7.3], the IC50 is 0.1 to 1 µM. Same read-out and setting: under `C=CC(=O)N1C[C@@H]2CN(c3ccc(C(N)=O)c4[nH]ccc34)C[C@@H]21` [E.9.43] stands 0.1 to 1 µM. The same measure, in the same setting: under `C=CC(=O)N1CC(N(C)c2ccc(C(N)=O)c3[nH]c(-c4ccc(CN5CCOCC5)cn4)cc23)C1` [E.9.13] stands less than 0.1 µM. The same measure, in the same setting: with `C=CC(=O)Nc1cc(OCc2ccccc2)cc(-c2ccc(C(N)=O)c3[nH]ccc23)c1` [E.1.14] the figure was 1 to 10 µM. For `Cn1cc(-c2cc3c(N4CCC[C@@H](n5cnc6ccccc6c5=O)C4)ccc(C(N)=O)c3[nH]2)cn1` [O.1.16*], the IC50 lay within 0.1 to 1 µM.

`C=CC(=O)N1CC(N(C)c2ccc(C(N)=O)c3[nH]c(-c4ccc(N5CCOCC5)nc4)cc23)C1` [E.9.10]: the IC50 is less than 0.1 µM. In the case of `CCC(=O)Nc1cccc(-c2ccc(C(N)=O)c3[nH]c(C4=CCN(S(C)(=O)=O)CC4)cc23)c1C` [D.7.41], the IC50 is less than 0.1 µM. As to `Cc1cc2c(N(C)C3CN(C#N)C3)ccc(C(N)=O)c2[nH]1` [J.3.1], the IC50 lay in the range of 0.1 to 1 µM. For `C=CC(=O)Nc1cc(-c2ccc(C(N)=O)c3[nH]ccc23)ccc1OCc1nccs1` [E.1.13], the IC50 was 0.1 to 1 µM. As to `C=CC(=O)Nc1cc(-c2ccc(C(N)=O)c3[nH]ccc23)c(F)cc1F` [E.1.22], the IC50 was less than 0.1 µM. Turning to `Cc1c(NC(=O)CCN2CCN(C)CC2)cccc1-c1ccc(C(N)=O)c2[nH]c(C3=CCN(S(C)(=O)=O)CC3)cc12` [D.7.27], the IC50 was less than 0.1 µM. On to `C=CC(=O)Nc1cccc(-c2ccc(C(N)=O)c3[nH]ccc23)c1C#N` [E.1.27], for which the IC50 lay in the range of 0.1 to 1 µM. On the same count and under the same terms, with `Cc1c(NC(=O)/C=C/CN2CCN(C)CC2)cccc1-c1ccc(C(N)=O)c2[nH]ccc12` [J.1.6] the figure was 1 to 10 µM; with `C=CC(=O)N1CC(N(C)c2ccc(C(N)=O)c3[nH]c(C4=CCC(F)(F)CC4)cc23)C1` [E.9.5], less than 0.1 µM; with `Cc1c(NC2COC2)cccc1-c1ccc(C(N)=O)c2[nH]ccc12` [O.1.2], 1 to 10 µM. Turning to `C=CC(=O)N1CCOC[C@H](c2ccc(C(N)=O)c3[nH]ccc23)C1` [E.9.39], the IC50 was 1 to 10 µM. Turning to `Cn1cc(-c2cc3c(N4CCC[C@@H](NC(=O)c5ccc(C(F)(F)F)cc5)C4)ccc(C(N)=O)c3[nH]2)cn1` [O.1.21*], the IC50 was 0.1 to 1 µM. Regarding `Cc1c(NC(=O)COc2cccnn2)cccc1-c1ccc(C(N)=O)c2[nH]c(C3=CCN(S(C)(=O)=O)CC3)cc12` [D.7.28], the IC50 was less than 0.1 µM. Take `CC(=O)N1CC=C(c2cc3c(-c4cccc(-n5cnc6ccccc6c5=O)c4C)ccc(C(N)=O)c3[nH]2)CC1` [E.8.2]: the IC50 is less than 0.1 µM. Take `CC(C)(C)c1ccc(C(=O)N[C@@H]2CCCN(c3ccc(C(N)=O)c4[nH]ccc34)C2)cc1` [O.1.11*]: the IC50 was in the range of 1 to 10 µM. Consider `C=CC(=O)N1CC(N(C)c2ccc(C(N)=O)c3[nH]c(C4CC4)cc23)C1` [E.9.2], for which the IC50 is less than 0.1 µM.

With `C=CC(=O)N1CC(N(C)c2ccc(C(N)=O)c3[nH]c(C4(O)COC4)cc23)C1` [E.9.22], the IC50 lay in the range of 0.1 to 1 µM. Consider `C=CC(=O)N1CC(N(C)c2ccc(C(N)=O)c3[nH]c(C4=CCC(S(C)(=O)=O)CC4)cc23)C1` (centres unmarked) [E.9.6], for which the IC50 was less than 0.1 µM.

The same experiment, now with this note: trFRET, 0.001 mM ATP, biotin-TYR1 peptide substrate; read-out: Btk IC50.
Take `Cc1c(NC(=O)CCN2CCOCC2)cccc1-c1ccc(C(N)=O)c2[nH]ccc12` [D.8.13]: the IC50 lay in the range of 1 to 10 µM.

Turning to `CC(=O)N1CC=C(c2cc3c(-c4cccc(NC(=O)c5ccc(C(C)(C)C)cc5)c4C)ccc(C(N)=O)c3[nH]2)CC1` [A.3.3], the IC50 was less than 0.1 µM. On the same count and under the same terms, under `Cc1c(-c2ccc(C(N)=O)c3[nH]c(-c4cnn(C)c4)nc23)cccc1-n1cnc2ccccc2c1=O` [Example 14, 2-(1-Methyl-1H-pyrazol-4-yl)-4-(2-methyl-3-(4-oxoquinazolin-3(4H)-yl)phenyl)-1H-benzo[d]imidazole-7-carboxamide] stands 0.1 to 1 µM. `NC(=O)c1ccc(-c2cncc(N)c2)c2cc[nH]c12` [A.5.4, 4-(5-aminopyridin-3-yl)-1H-indole-7-carboxamide]: the IC50 was in the range of 1 to 10 µM. With `C=CC(=O)N[C@@H]1CCC[C@H](c2ccc(C(N)=O)c3[nH]ccc23)C1` (relative stereo) [Example 8, 4-(cis-3-Acrylamidocyclohexyl)-1H-indole-7-carboxamide], the IC50 is less than 0.1 µM.

Turning to `Cc1c(NC(=O)c2cc3c(s2)CCCC3)cccc1-c1ccc(C(N)=O)c2[nH]c(-c3cnn(C)c3)cc12` [A.10.5], the IC50 was less than 0.1 µM. For `C=CC(=O)Nc1cccc(-c2ccc(C(N)=O)c3[nH]c(-c4cc(S(=O)(=O)N5CCCC5)ccc4C)cc23)c1C` [A.1.28], the IC50 was 0.1 to 1 µM. `Cc1c(NC(=O)c2ccc(C(C)(C)C)cc2)cccc1-c1ccc(C(N)=O)c2[nH]c(-c3cccnc3)cc12` [A.7.1]: the IC50 was less than 0.1 µM. As to `CC(=O)N1CC=C(c2cc3c(-c4cccc(-n5cnc6ccccc6c5=O)c4C)ccc(C(N)=O)c3[nH]2)CC1` [A.3.1], the half-maximal inhibitory concentration (IC50) is less than 0.1 µM. On to `C=CC(=O)Nc1cccc(-c2cnc(C(N)=O)c3[nH]ccc23)c1C` [Example 17, 4-(3-Acrylamido-2-methylphenyl)-1H-pyrrolo[2,3-c]pyridine-7-carboxamide], for which the IC50 is less than 0.1 µM. With `NC(=O)c1ccc(-c2ccccc2N)c2cc[nH]c12` [A.5.1, 4-(2-aminophenyl)-1H-indole-7-carboxamide], the IC50 was in the range of 1 to 10 µM.

Take `CCOC(=O)/C=C/C(=O)Nc1cccc(-c2ccc(C(N)=O)c3[nH]ccc23)c1C` [D.8.1]: the concentration for half-maximal inhibition (IC50) was less than 0.1 µM.

Take `C=CC(=O)Nc1cccc(-c2ccc(C(N)=O)c3[nH]c(-c4ccccc4)cc23)c1C` [A.1.33]: the IC50 is less than 0.1 µM.

Regarding `Cc1c(NC(=O)c2ccc(C(F)F)cc2)cccc1-c1ccc(C(N)=O)c2[nH]c(-c3cncnc3)cc12` [A.13.3], the IC50 fell in the range of 0.1 to 1 µM. Consider `CC(=O)N1CC=C(c2cc3c(-c4cccc(NC(=O)c5ccc(C(F)F)cc5)c4C)ccc(C(N)=O)c3[nH]2)CC1` [A.3.7, 2-(1-acetyl-1,2,3,6-tetrahydropyridin-4-yl)-4-(3-(4-(difluoromethyl)benzamido)-2-methylphenyl)-1H-indole-7-carboxamide], for which the IC50 is less than 0.1 µM. For `NC(=O)c1ccc(I)c2cc(-c3cccnc3)[nH]c12` [F.1, 4-iodo-2-(pyridin-3-yl)-1H-indole-7-carboxamide], the IC50 fell in the range of 0.1 to 1 µM. Regarding `C=C(C)C(=O)Nc1cccc(-c2ccc(C(N)=O)c3[nH]ccc23)c1C` [D.8.10], the IC50 lay within 1 to 10 µM. As to `Cc1c(-c2ccc(C(N)=O)c3[nH]c(C4=CCN(S(C)(=O)=O)CC4)cc23)cccc1-n1cnc2ccc(F)cc2c1=O` [A.4.19], the IC50 is less than 0.1 µM.

On to `Cc1ccc(-c2cc3c(Nc4ccnn4C)ccc(C(N)=O)c3[nH]2)cc1` [Preparation #T.1, 4-(1-Methyl-1H-pyrazol-5-ylamino)-2-p-tolyl-1H-indole-7-carboxamide], for which the IC50 lay in the range of 0.1 to 1 µM. `C=CC(=O)Nc1cccc(-c2ccc(C(N)=O)c3[nH]c(-c4ccc(C(=O)N5CCN(C)CC5)cc4)cc23)c1C` [A.1.39]: the IC50 is less than 0.1 µM.

Take `Cc1c(NC2COC2)cccc1-c1ccc(C(N)=O)c2[nH]c(C3=CCN(S(C)(=O)=O)CC3)cc12` [A.4.11]: the IC50 was less than 0.1 µM. Take `Cc1ccc(-c2cc3c(-c4ccsc4)ccc(C(N)=O)c3[nH]2)cc1` [A.8.6]: the IC50 lay within 0.1 to 1 µM.

In the case of `COC(=O)/C=C/C(=O)Nc1cccc(-c2ccc(C(N)=O)c3[nH]ccc23)c1` [D.1, (E)-Methyl 4-((3-(7-carbamoyl-1H-indol-4-yl)phenyl)amino)-4-oxobut-2-enoate], the IC50 was less than 0.1 µM.

`CCNC(=O)/C=C\C(=O)Nc1cccc(-c2ccc(C(N)=O)c3[nH]ccc23)c1C` [D.8.15]: the IC50 is less than 0.1 µM. With `C=CC(=O)Nc1cccc(-c2ccc(C(N)=O)c3[nH]c(-c4cccc(C(N)=O)c4)cc23)c1C` [A.1.25], the IC50 is less than 0.1 µM. Still for that read-out and setting: with `C=CC(=O)Nc1cccc(-c2ccc(C(N)=O)c3[nH]c(-c4ccncc4)cc23)c1C` [A.1.12] the figure was less than 0.1 µM.
